Measured values from PMC8061081 (Fitoterapia, 2021).

target: T1, SARS-CoV-2 3CL^pro (Severe acute respiratory syndrome coronavirus 2, UniProt P0DTD1); assay: biochemical; settings: not given

`O=c1cc(-c2ccc(O)c(-c3c(O)cc(O)c4c(=O)cc(-c5ccc(O)cc5)oc34)c2)oc2cc(O)cc(O)c12` [amentoflavone] and `COc1ccc(-c2cc(=O)c3c(O)cc(O)cc3o2)cc1-c1c(O)cc(O)c2c(=O)cc(-c3ccc(O)cc3)oc12` [bilobetin] are within error of each other in IC50: 8.65 ± 3.72 µM for the first, 11.2 ± 2.41 µM for the second.

`CC(C)(C)[C@]1(O)CC2OC(=O)CC23C(=O)OC2OC(=O)[C@H](O)C231` (some centres unmarked) [bilobalide] and `C[C@@H]1C(=O)O[C@H]2C[C@@]34[C@H]5C[C@@H](C(C)(C)C)[C@]36[C@@H](OC(=O)[C@@H]6O)O[C@@]4(C(=O)O5)[C@]21O` [ginkgolide A] cannot be ordered by IC50: > 100 µM for the first, > 100 µM for the second.

Going from `COc1cc(O)c2c(=O)cc(-c3ccc(O)cc3)oc2c1` [genkwanin] to `O=c1c(O)c(-c2ccc(O)cc2)oc2cc(O)cc(O)c12` [kaempferol], the IC50 rises from 10.6 ± 1.89 µM to > 100 µM.

`COc1cc(O)c2c(=O)cc(-c3ccc(OC)c(-c4c(O)cc(O)c5c(=O)cc(-c6ccc(O)cc6)oc45)c3)oc2c1` [ginkgetin] and `COc1ccc(-c2cc(=O)c3c(O)cc(O)c(-c4cc(-c5cc(=O)c6c(O)cc(O)cc6o5)ccc4OC)c3o2)cc1` [isoginkgetin] are within error of each other in IC50: 2.98 ± 0.86 µM for the first, 2.33 ± 0.46 µM for the second.

First: COc1cc(-c2oc3cc(O)cc(O)c3c(=O)c2O)ccc1O [isorhamnetin]
Second: C[C@@H]1O[C@@H](Oc2c(-c3ccc(O)c(O)c3)oc3cc(O)cc(O)c3c2=O)[C@H](O)[C@H](O)[C@H]1O [quercitrin]
The IC50 of the first is lower: 31.6 ± 16.6 µM for the first, > 100 µM for the second.

same assay, conditions: 3CLpro 4 μg/mL, preincubation 37 °C 40 min, substrate 20 μM, PBS pH 7.4

`COc1ccc(-c2cc(=O)c3c(O)cc(O)c(-c4cc(-c5cc(=O)c6c(O)cc(OC)cc6o5)ccc4OC)c3o2)cc1` [sciadopitysin] gave an IC50 of 1.09 ± 0.19 µM.

same assay, conditions: pH 7.4

Going from `CCCCCCCCCCCCCc1cccc(O)c1C(=O)O` [GA C13:0] to `CCCCCC/C=C\CCCCCCCCCc1cccc(O)c1C(=O)O` [GA C17:1], the IC50 falls from 3.57 ± 0.9 µM to 1.19 ± 0.15 µM (3-fold). The second is the more potent here.

`CCCCCC/C=C\CCCCCCCc1cccc(O)c1C(=O)O` [GA C15:1] gave an IC50 of 3.45 ± 0.78 µM.

target: T1, SARS-CoV-2 3CL^pro; assay: Inhibition kinetics, determination of inhibition constants; assay type: biochemical; settings: inhibition kinetic plots and Lineweaver-Burk plots

With `CCCCCCCCCCCCCCCc1cccc(O)c1C(=O)O` [GA C15:0] the Inhibition mode was “reversible and mixed-inhibition”.
`CCCCCC/C=C\CCCCCCCCCc1cccc(O)c1C(=O)O` [GA C17:1] was tested, and the Inhibition mode was “reversible and mixed-inhibition”.
For `COc1ccc(-c2cc(=O)c3c(O)cc(O)c(-c4cc(-c5cc(=O)c6c(O)cc(OC)cc6o5)ccc4OC)c3o2)cc1` [sciadopitysin], the Inhibition mode was “reversible and mixed-inhibition”.
